Source: US20240033283A1, “FUNCTIONALIZED AND CROSSLINKED POLYMERS” (PMIDG, LLC, priority 2020, published 2024)
Counter-ions that a name gives are not always drawn.

Assay: Lidocaine release from gels (dialysis tubing)
Format: physicochemical
Conditions: PBS, 37° C.
Method: HA and HA-DVS-MBA (83.3% substitution) gels were prepared in a similar manner as described in Example 18 using 0.75% BDDE and a pH of 13.1. About 2 g of each gel were added to a vial and 105 uL of a 6% (w/w) lidocaine HCl in PBS solution was added to each sample. After mixing, the samples were autoclaved for 5 minutes at 121° C. Approx. 1.5 g of each gel was transferred to dialysis tubing (Aldon Corporation, IS13027, 6.4 mm×10 mm, cut-off: 12-14 kDa). […] The loaded dialysis tubing was placed in separate 45 ml PBS solutions and incubated at 37° C. under oscillating conditions. […] The lidocaine content was measured using HPLC. The percent release was determined by released amount divided by the initial amount added. The release of the lidocaine from the HA and HA-MBA gels was similar.

## CCN(CC)CC(=O)Nc1c(C)cccc1C [Lidocaine only, lidocaine HCl]
Time 0.5 hr
  Cumulative Release (%): 82%
Time 1 hr
  Cumulative Release (%): 87%
Time 1.5 hr
  Cumulative Release (%): 86%
Time 2 hr
  Cumulative Release (%): 84%
Time 3.5 hr
  Cumulative Release (%): 82%
